Patent US9975852B2, “Quinoline sulfonyl derivatives and uses thereof” (Health Sciences North Research Institute, priority 2013, dated 2018)
Where two headings read alike, the source gives them in different places.

Assays:
MCF10A = experiment: SRB antiproliferative assay, MCF10A non-cancer breast cells; format: cell-based, human; conditions: Homo sapiens, MCF-10A, 48 h
Experimental: (§1) Antiproliferative effects were determined by a sulforhodamine B (SRB) based protocol. For a typical screening experiment, 5,000-10,000 cells were inoculated into 100 μl medium per well of a 96-well microtiter plate as described previously. […] Some of the sample wells were fixed with 25 μl of 50% trichloroacetic acid (TCA) as a control of the cell population for each cell line at the time of drug addition (Tz). An aliquot of the frozen stock was thawed and diluted to the desired final maximum test-concentration with complete medium. Two to ten-fold serial dilutions were made to provide a total of seven drug concentrations (and a control [C]). Following addition of drugs, the culture plate was incubated for additional 48 h. Cells were fixed in situ by slowly adding 25 μl of ice-cold 50% (w/v) TCA (final concentration, 10% TCA), and were then incubated for 60 min at 4° C. The supernatant was discarded, and the plate was washed five times with tap water, followed by air-dry. 50 μl of SRB solution at 0.4% (w/v) in 1% acetic acid was added to each well, and the plate was incubated for >30 min at room temperature. Unbound SRB was removed by five washes with tap water, followed by air-drying. […] The relative growth rate (%) was calculated for each of the compound concentrations according to the following formula: (Ti−Tz)/(C−Tz)×100 In the formula, time zero (Tz), control growth (C), and OD for different concentration of tested compounds (Ti). The GI50 for each compound was obtained from a non-linear Sigmoidal dose-response (variable slope) curve which is fitted by GraphPad Prism™ v.4.03 software. Values were calculated for each of these parameters if the level of activity was reached. However, if the effect was not reached or was exceeded, the value for that parameter was expressed as greater or less than the maximum or minimum concentration tested. Flow Cytometry

184B5 = experiment: SRB antiproliferative assay, 184B5 non-cancer breast cells; format: cell-based, human; conditions: Homo sapiens, 184B5; SRB, 48 h; read-out: GI50 184B5
Experimental: as §1

MDA-MB231 = experiment: SRB antiproliferative assay, MDA-MB231; format: cell-based, human; conditions: Homo sapiens, MDA-MB-231, 48 h
Experimental: as §1

MCF7 = experiment: SRB antiproliferative assay, MCF7; format: cell-based, human; conditions: Homo sapiens
Experimental: as §1

MDA-MB468 = experiment: SRB antiproliferative assay, MDA-MB468; format: cell-based, human; conditions: Homo sapiens, MDA-MB-468, 48 h
Experimental: as §1

[1] = Serum ALT liver toxicity, CD-1 mice; conditions: Chloroquine (Reference)
Experimental: (§2) Alanine Transaminase (“ALT”, SUP6001-c)/Aspartate Transaminase (“AST”, SUP6002-c) color endpoint assay kits were purchased from ID Labs Biotechnology (London, Ontario, Canada). Elevation of ALT and AST levels in serum samples is used as an indicator of liver damage/injury.
(§3) Animals were monitored for food and water consumption every day, and their body weights and tumor volumes were measured twice per week. Tumor volumes were measured with a digital caliper and were determined by using the following formula: ½ length×width^2. Blood samples were collected via cardiac puncture and processed further for ALT and AST measurements. The animals were then immediately euthanized by carbon dioxide.
(§4) Changes in body weight and the amount and ratio of alanine transaminase (ALT)/aspartate transaminase (AST) were used to measure toxic effects.
Ratio of <2 is considered normal.

MCF10A non-cancer cells = conditions: 50 μM CQ
[2] = ATH490 mice
Experimental: as §2, §3, §4
Ratio of <2 is considered normal.

[3] = test system: MDA-MB231 human metastatic breast cancer cells; experiment: Xenograft antitumor activity, ATH490 mice engrafted with MDA-MB231; format: in vivo; design: Tumor size D7 / Tumor size D15 / Tumor size D18 / Tumor size D22: unit not given here
Experimental: Five-week-old female CD-1 and ATH490 (strain code 490) athymic nude mice were purchased from Charles River (Quebec, Canada). The MDA-MB231 human metastatic breast cancer cells were obtained from the American Tissue Culture Collection (ATCC, Manassas, Va., USA). Cells were maintained under humidified condition at 37° C. and 5% CO2 in DMEM high glucose medium (ATCC) supplemented with 10% fetal bovine serum and antibiotics. All animal experiments, including animal handling, care, treatment and endpoint determination, were reviewed and approved by the Laurentian University Animal Care Committee (ACC) and carried out at Laurentian University Animal Care facility (Sudbury, Ontario, Canada)
To determine anti-tumor activity of VR-23 in an animal model, a xenograft model of human breast cancer cells in athymic nude mice was established. Exponentially growing MDA-MB231 cells were harvested and counted for inoculation into mice. Each mouse was subcutaneously injected at the flank with 10×10^6 cells in 0.2 ml ice cold 1×PBS. When tumor size reached 4-5 mm in diameter (n=4-5 per group), mice were randomly assigned into five (or more) groups.

[4] = Organ weight and histology (liver, spleen, kidney, lung) of ATH490 mice
Experimental: All values are presented as mean±S.E.M. Analyses were performed using GraphPad Prism software (GraphPad Software). Comparison between the groups was made by p value determination using one-way ANOVA. A p value of <0.05 was considered to be statistically significant. […] Each organ weight (%) is normalized with total body weight (BW).
The H&E stained slides were taken with a 20× objective using a Zeiss EPI-fluorescent microscope (bright field). […] At least 10 fields for each slide (one slide per mouse, and 3 mice per group) were examined.
Images were taken with a 10× objective using a Zeiss EPI-fluorescent microscope. […] Drug administration was carried out as described in Table IX and in the Materials and Methods section herein with respect to Animal Studies.
The images of the H&E stained renal tissues were taken with a Zeiss EPI-fluorescent (bright field) microscope using a 10× objective.

MCF7 cells = experiment: Clonogenic assay using MCF7 cells; format: cell-based, human
Experimental: The clonogenic assay was carried out as described in Santi and Lee (2011).^11
Antiproliferative activity of VR-23 was evaluated on a variety of different cell lines, alone or in combination with Bortezomib, by way of SRBSRB or clonogenic assays.

CCN(CC)CCCC(C)Nc1ccnc2cc(Cl)ccc12 (centres unmarked) [Chloroquine, reference compound]
GI50 (MCF10A): 81.3 ± 1.45 µM | GI50 (184B5): 76.1 ± 1.13 µM | GI50 (MDA-MB231): 22.5 ± 1.44 µM | GI50 (MCF7; MCF7, 48 h, read-out: GI50 MCF7): 38.4 ± 1.2 µM | GI50 (MCF7; MCF7, read-out: GI50 value of CQ on MCF7): ~38 µM | GI50 (MDA-MB468): 28.6 ± 1.25 µM | ALT [1]: 6.03 ± 4.40 IU/L blood | Apoptosis in MCF10A (MCF10A non-cancer cells): some cells underwent apoptosis

CC(=O)O[C@H]1C(=O)[C@@]2(C)[C@H]([C@H](OC(=O)c3ccccc3)[C@]3(O)C[C@H](OC(=O)[C@H](O)[C@@H](NC(=O)c4ccccc4)c4ccccc4)C(C)=C1C3(C)C)[C@]1(OC(C)=O)CO[C@@H]1C[C@@H]2O [Paclitaxel]
ALT [2]: 35.91 ± 4.26 U/L | AST [2]: 84.4 ± 29.21 U/L | Tumor size D7 ([3]; day 7 post-treatment, dosing as in Table IX B): 47.63 ± 8.67 | Tumor size D15 ([3]; day 15 post-treatment, dosing as in Table IX B): 23.25 ± 11.63 | Tumor size D18 ([3]; day 18 post-treatment, dosing as in Table IX B): 25.20 ± 13.69 | Tumor size D22 ([3]; day 22 post-treatment, dosing as in Table IX B): 16.59 ± 2.66 | Reduction of tumor burden ([3]; paclitaxel 20 mg/kg/week): 18.4 fold | Microscopic Changes (liver) ([4]; ATH490 mice, VR-23, 30 mg/week, Paclitaxel, 20 mg/week): High rate of mitotic cells in liver | Spleen histology (H&E) ([4]; VR-23 30 mg/kg, paclitaxel 20 mg/kg): side effects including germinal center (GC) expansion | Kidney histology (H&E), nephrotoxicity ([4]; VR-23 30 mg/kg, paclitaxel 20 mg/kg, four weeks): high cellularity, endocapillary proliferative glomerulonephritis (enlarged glomeruli), and collapsed Bowman space | Cases with liver cells with densely stained nucleic acids ([4]; paclitaxel 20 mg/kg): approximately 15% | Weight of spleen ([4]; paclitaxel-treated, 29 days post-treatment): weight of spleen was higher | Survival (% of the control) (MCF7 cells; 1 nM of Paclitaxel alone): 35.8% | Survival (% of the control) (MCF7 cells; 1 nM of Paclitaxel alone, listed as paclitaxel): 35.8% | Survival (% of the control) (MCF7 cells; 2 nM of Paclitaxel alone): 9.5%
